Data: the CheMixHub viscosity set
“And” between values parts separate entries of the source, which are not always exact repeats. Equal values may be shown once.

Experiment: xn = mol fraction of the nth substance listed

CCCCCCC + CCCO
Conditions | viscosity
293.15 K, 101 kPa, x1 = 0.102 | 1.641 mPa·s
293.15 K, 101 kPa, x1 = 0.2018 | 1.291 mPa·s
293.15 K, 101 kPa, x1 = 0.299 | 1.052 mPa·s
293.15 K, 101 kPa, x1 = 0.4005 | 0.8426 mPa·s
293.15 K, 101 kPa, x1 = 0.5017 | 0.6995 mPa·s
293.15 K, 101 kPa, x1 = 0.6033 | 0.5899 mPa·s
293.15 K, 101 kPa, x1 = 0.7025 | 0.5126 mPa·s
293.15 K, 101 kPa, x1 = 0.801 | 0.4793 mPa·s
293.15 K, 101 kPa, x1 = 0.8918 | 0.4475 mPa·s
298.15 K, 100 kPa, x1 = 0.0569 | 1.654 mPa·s
298.15 K, 100 kPa, x1 = 0.1025 | 1.453 mPa·s
298.15 K, 100 kPa, x1 = 0.1996 | 1.138 mPa·s
298.15 K, 100 kPa, x1 = 0.3052 | 0.9066 mPa·s
298.15 K, 100 kPa, x1 = 0.4045 | 0.75 mPa·s
298.15 K, 100 kPa, x1 = 0.5038 | 0.6265 mPa·s
298.15 K, 100 kPa, x1 = 0.6039 | 0.5366 mPa·s
298.15 K, 100 kPa, x1 = 0.7066 | 0.4713 mPa·s
298.15 K, 100 kPa, x1 = 0.8001 | 0.4307 mPa·s
298.15 K, 100 kPa, x1 = 0.8488 | 0.4168 mPa·s
298.15 K, 100 kPa, x1 = 0.9551 | 0.4008 mPa·s
298.15 K, 100 kPa, x2 = 0.1648 | 0.4406 mPa·s
298.15 K, 100 kPa, x2 = 0.3402 | 0.5464 mPa·s
298.15 K, 100 kPa, x2 = 0.5002 | 0.7014 mPa·s
298.15 K, 100 kPa, x2 = 0.6602 | 0.9498 mPa·s
298.15 K, 100 kPa, x2 = 0.8383 | 1.294 mPa·s
298.15 K, 101 kPa, x1 = 0.0164 | 1.804 mPa·s
298.15 K, 101 kPa, x1 = 0.102 | 1.477 mPa·s
298.15 K, 101 kPa, x1 = 0.2018 | 1.166 mPa·s
298.15 K, 101 kPa, x1 = 0.299 | 0.9499 mPa·s
298.15 K, 101 kPa, x1 = 0.4005 | 0.7687 mPa·s
298.15 K, 101 kPa, x1 = 0.5017 | 0.6453 mPa·s
298.15 K, 101 kPa, x1 = 0.6033 | 0.5511 mPa·s
298.15 K, 101 kPa, x1 = 0.7025 | 0.4886 mPa·s
298.15 K, 101 kPa, x1 = 0.801 | 0.4419 mPa·s
298.15 K, 101 kPa, x1 = 0.8918 | 0.4174 mPa·s
298.15 K, 101 kPa, x2 = 0.0584 | 0.39 mPa·s
298.15 K, 101 kPa, x2 = 0.1192 | 0.408 mPa·s
298.15 K, 101 kPa, x2 = 0.1482 | 0.416 mPa·s
298.15 K, 101 kPa, x2 = 0.2647 | 0.454 mPa·s
298.15 K, 101 kPa, x2 = 0.3436 | 0.489 mPa·s
298.15 K, 101 kPa, x2 = 0.4121 | 0.53 mPa·s
298.15 K, 101 kPa, x2 = 0.5026 | 0.606 mPa·s
298.15 K, 101 kPa, x2 = 0.5659 | 0.679 mPa·s
298.15 K, 101 kPa, x2 = 0.654 | 0.811 mPa·s
298.15 K, 101 kPa, x2 = 0.6877 | 0.872 mPa·s
298.15 K, 101 kPa, x2 = 0.7447 | 0.994 mPa·s
298.15 K, 101 kPa, x2 = 0.8298 | 1.222 mPa·s
298.15 K, 101.33 kPa, x1 = 0.0127 | 1.873 mPa·s
298.15 K, 101.33 kPa, x2 = 0.0468 | 0.393 mPa·s
298.15 K, 101.33 kPa, x2 = 0.0919 | 0.409 mPa·s
298.15 K, 101.33 kPa, x2 = 0.0989 | 0.403 mPa·s
298.15 K, 101.33 kPa, x2 = 0.2079 | 0.4331 mPa·s
298.15 K, 101.33 kPa, x2 = 0.2269 | 0.46 mPa·s
298.15 K, 101.33 kPa, x2 = 0.2621 | 0.454 mPa·s
298.15 K, 101.33 kPa, x2 = 0.34 | 0.52 mPa·s
298.15 K, 101.33 kPa, x2 = 0.362 | 0.4992 mPa·s
298.15 K, 101.33 kPa, x2 = 0.4038 | 0.571 mPa·s
298.15 K, 101.33 kPa, x2 = 0.4569 | 0.576 mPa·s
298.15 K, 101.33 kPa, x2 = 0.521 | 0.682 mPa·s
298.15 K, 101.33 kPa, x2 = 0.5667 | 0.69 mPa·s
298.15 K, 101.33 kPa, x2 = 0.598 | 0.776 mPa·s
298.15 K, 101.33 kPa, x2 = 0.6616 | 0.876 mPa·s
298.15 K, 101.33 kPa, x2 = 0.6636 | 0.832 mPa·s
298.15 K, 101.33 kPa, x2 = 0.7478 | 0.999 mPa·s
298.15 K, 101.33 kPa, x2 = 0.7849 | 1.154 mPa·s
298.15 K, 101.33 kPa, x2 = 0.8202 | 1.187 mPa·s
298.15 K, 101.33 kPa, x2 = 0.879 | 1.447 mPa·s
298.15 K, 101.33 kPa, x2 = 0.9458 | 1.659 mPa·s
298.15 K, 101.33 kPa, x2 = 0.967 | 1.811 mPa·s
303.15 K, 101 kPa, x1 = 0.0164 | 1.609 mPa·s
303.15 K, 101 kPa, x1 = 0.102 | 1.319 mPa·s
303.15 K, 101 kPa, x1 = 0.2018 | 1.047 mPa·s
303.15 K, 101 kPa, x1 = 0.299 | 0.8669 mPa·s
303.15 K, 101 kPa, x1 = 0.4005 | 0.7025 mPa·s
303.15 K, 101 kPa, x1 = 0.5017 | 0.5949 mPa·s
303.15 K, 101 kPa, x1 = 0.6033 | 0.5056 mPa·s
303.15 K, 101 kPa, x1 = 0.7025 | 0.4543 mPa·s
303.15 K, 101 kPa, x1 = 0.801 | 0.4254 mPa·s
303.15 K, 101 kPa, x1 = 0.8918 | 0.3943 mPa·s
303.15 K, 101 kPa, x2 = 0.0637 | 0.364 mPa·s and 0.344 mPa·s
303.15 K, 101 kPa, x2 = 0.1192 | 0.374 mPa·s
303.15 K, 101 kPa, x2 = 0.2374 | 0.415 mPa·s
303.15 K, 101 kPa, x2 = 0.3198 | 0.444 mPa·s
303.15 K, 101 kPa, x2 = 0.4121 | 0.496 mPa·s
303.15 K, 101 kPa, x2 = 0.5026 | 0.569 mPa·s
303.15 K, 101 kPa, x2 = 0.6029 | 0.674 mPa·s
303.15 K, 101 kPa, x2 = 0.6539 | 0.742 mPa·s
303.15 K, 101 kPa, x2 = 0.6876 | 0.785 mPa·s
303.15 K, 101 kPa, x2 = 0.7445 | 0.889 mPa·s
303.15 K, 101 kPa, x2 = 0.7867 | 0.975 mPa·s
303.15 K, 101 kPa, x2 = 0.8298 | 1.096 mPa·s
303.15 K, 101 kPa, x2 = 0.884 | 1.23 mPa·s
303.15 K, 101 kPa, x2 = 0.9695 | 1.544 mPa·s
308.15 K, 101 kPa, x1 = 0.102 | 1.189 mPa·s
308.15 K, 101 kPa, x1 = 0.2018 | 0.9659 mPa·s
308.15 K, 101 kPa, x1 = 0.299 | 0.7776 mPa·s
308.15 K, 101 kPa, x1 = 0.4005 | 0.6444 mPa·s
308.15 K, 101 kPa, x1 = 0.5017 | 0.5454 mPa·s
308.15 K, 101 kPa, x1 = 0.6033 | 0.4781 mPa·s
308.15 K, 101 kPa, x1 = 0.7025 | 0.4308 mPa·s
308.15 K, 101 kPa, x1 = 0.801 | 0.3988 mPa·s
308.15 K, 101 kPa, x1 = 0.8918 | 0.3783 mPa·s
308.15 K, 101 kPa, x2 = 0.1596 | 0.36 mPa·s
308.15 K, 101 kPa, x2 = 0.2647 | 0.399 mPa·s
308.15 K, 101 kPa, x2 = 0.3436 | 0.435 mPa·s
308.15 K, 101 kPa, x2 = 0.4385 | 0.489 mPa·s
308.15 K, 101 kPa, x2 = 0.5026 | 0.532 mPa·s
308.15 K, 101 kPa, x2 = 0.5659 | 0.584 mPa·s
308.15 K, 101 kPa, x2 = 0.6029 | 0.619 mPa·s
308.15 K, 101 kPa, x2 = 0.6877 | 0.728 mPa·s
308.15 K, 101 kPa, x2 = 0.7447 | 0.817 mPa·s
308.15 K, 101 kPa, x2 = 0.7867 | 0.909 mPa·s
308.15 K, 101 kPa, x2 = 0.884 | 1.158 mPa·s
308.15 K, 101 kPa, x2 = 0.9695 | 1.444 mPa·s
308.15 K, 101.33 kPa, x1 = 0.0127 | 1.506 mPa·s
308.15 K, 101.33 kPa, x2 = 0.0468 | 0.3551 mPa·s
308.15 K, 101.33 kPa, x2 = 0.0989 | 0.36 mPa·s
308.15 K, 101.33 kPa, x2 = 0.2079 | 0.3821 mPa·s
308.15 K, 101.33 kPa, x2 = 0.2621 | 0.4018 mPa·s
308.15 K, 101.33 kPa, x2 = 0.362 | 0.4432 mPa·s
308.15 K, 101.33 kPa, x2 = 0.4569 | 0.492 mPa·s
308.15 K, 101.33 kPa, x2 = 0.5667 | 0.5902 mPa·s
308.15 K, 101.33 kPa, x2 = 0.6636 | 0.7 mPa·s
308.15 K, 101.33 kPa, x2 = 0.7478 | 0.8319 mPa·s
308.15 K, 101.33 kPa, x2 = 0.8202 | 0.98 mPa·s
308.15 K, 101.33 kPa, x2 = 0.9458 | 1.347 mPa·s
